Assay results as given in US20210230213A1, “ARAMCHOL SALTS” (GALMED RESEARCH AND DEVELOPMENT LTD., priority 2013, published 2021).

Assay: In vivo permeability / PK after intrajejunal administration in cannulated rats (Example 7)
Parameters: species or system male Wistar rats
Conditions: rat
Experimental: An in vivo permeability study of Aramchol salts was performed in male Wistar rats cannulated in the jugular vein and in the jejunum. Intestinal cannulation was performed in order to bypass protonation of Aramchol salts in acidic gastric pH. Aramchol salts solubilized in PBS (30 mg/mL) were administered to rats intestine (jejunum) in a dose of 100 mg/kg (based on free acid), via a cannula inserted into the proximal side of the jejunum. A suspension of Aramchol free acid (in PBS, 30 mg/mL) was administered via the same route and was used as control. Blood samples were withdrawn via a cannula inserted into jugular vein at pre-determined time points (pre-dose, 1 hr, 2 hr, 4 hr, 8 hr, 12 hr, 24 hr post dose). Plasma concentrations of Aramchol (free acid) were measured using a liquid chromatography-tandem mass spectrometry (LC-MS-MS) method by Analyst Bioanalytical Laboratories, Israel. All PK parameters were calculated using non-compartmental analysis. Only those plasma concentrations equal to or greater than the lower limit of quantitation (LOQ) (48.66 ng/mL) were used in the analysis. Plasma concentrations <LOQ that occurred from pre-dose to the first concentration ≥LOQ were treated as 0. Actual sampling times were used for all pharmacokinetic analyses. The following PK parameters were calculated: maximum plasma concentration (Cmax), time to Cmax (Tmax), area under the plasma concentration-time curve from time of administration until the last plasma concentration (AUC0-4), AUC/dose, elimination half-life (t½). Cmax and Tmax were taken directly from the data. Area under the curve from zero to the final sample with a concentration ≥LOQ. AUC0-4 was calculated using the linear trapezoidal method.

[1] = 100 mg/kg, mean ± standard error

3β-arachidylamido-7α,12α-dihydroxy-5β-cholan-24-oic acid N-methylglucamine salt
increase in Cmax compared to Aramchol free acid: 3.6 fold
Cmax (100 mg/kg (based on free acid) in PBS 30 mg/mL, plasma Aramchol (free acid), mean ± standard error): 5012.1 ± 1879.9 (5) ng/mL
AUC(0-t) [1]: 33625.2 ± 9567.7 (5) hr × ng/mL
AUC/dose [1]: 331.7 ± 82.5 (5) hr × ng × kg/mL × mg
t1/2 [1]: 5.2 ± 1.0 (5) hr
Tmax (100 mg/kg, median): 4.0 (5) [2-4] hr
